According to PMC12621043, “Un-LOK-ing a New Approach for Conformational Selective Targeting of STK10 (LOK)” (ACS Medicinal Chemistry Letters, 2025):

What was measured:
Test in all cases: DSF Tm panel
Format in all cases: binding
Conditions in all cases: 10 μM compound
EPHB3A = target: T1, EPHB3A (Homo sapiens, UniProt P54753)
T1 construct: purchased in-house DSF kinase panel (SGC-style construct names; the trailing letter is the construct ID)
T1 sequence (P54753 34-998): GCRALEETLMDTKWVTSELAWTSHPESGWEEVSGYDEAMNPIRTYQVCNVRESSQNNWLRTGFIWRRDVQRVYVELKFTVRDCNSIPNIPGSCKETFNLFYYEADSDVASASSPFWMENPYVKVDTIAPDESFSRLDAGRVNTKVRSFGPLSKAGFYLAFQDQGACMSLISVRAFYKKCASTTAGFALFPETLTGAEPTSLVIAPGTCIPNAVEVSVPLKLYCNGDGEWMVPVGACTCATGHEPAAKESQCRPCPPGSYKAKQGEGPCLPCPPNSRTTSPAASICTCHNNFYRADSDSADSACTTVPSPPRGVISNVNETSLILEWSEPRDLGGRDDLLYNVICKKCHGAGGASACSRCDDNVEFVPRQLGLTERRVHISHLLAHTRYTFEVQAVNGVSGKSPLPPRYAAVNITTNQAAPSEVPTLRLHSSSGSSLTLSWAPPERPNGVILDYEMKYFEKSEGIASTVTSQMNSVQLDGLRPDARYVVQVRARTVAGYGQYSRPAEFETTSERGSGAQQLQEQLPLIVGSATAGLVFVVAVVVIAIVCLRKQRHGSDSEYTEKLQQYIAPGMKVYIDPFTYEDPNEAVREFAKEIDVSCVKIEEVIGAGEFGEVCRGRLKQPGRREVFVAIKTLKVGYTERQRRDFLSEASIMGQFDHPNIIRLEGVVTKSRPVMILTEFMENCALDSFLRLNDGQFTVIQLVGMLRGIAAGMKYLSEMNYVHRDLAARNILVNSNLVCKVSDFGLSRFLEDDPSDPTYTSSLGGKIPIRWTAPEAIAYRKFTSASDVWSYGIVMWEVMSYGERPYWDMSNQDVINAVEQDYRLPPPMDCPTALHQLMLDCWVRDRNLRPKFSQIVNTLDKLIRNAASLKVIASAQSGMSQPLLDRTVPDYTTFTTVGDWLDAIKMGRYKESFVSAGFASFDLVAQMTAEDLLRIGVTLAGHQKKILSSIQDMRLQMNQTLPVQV

CLK1A = target: T2, CLK1A (Homo sapiens, UniProt P49759)
T2 construct: purchased in-house DSF kinase panel (SGC-style construct names; the trailing letter is the construct ID)

MAPK9A = target: T3, MAPK9A (Homo sapiens, UniProt P45984)
T3 construct: purchased in-house DSF kinase panel (SGC-style construct names; the trailing letter is the construct ID)

DCAMKL1A = target: T4, DCAMKL1A (Homo sapiens, UniProt O15075)
T4 construct: purchased in-house DSF kinase panel (SGC-style construct names; the trailing letter is the construct ID)
T4 sequence (O15075 372-649): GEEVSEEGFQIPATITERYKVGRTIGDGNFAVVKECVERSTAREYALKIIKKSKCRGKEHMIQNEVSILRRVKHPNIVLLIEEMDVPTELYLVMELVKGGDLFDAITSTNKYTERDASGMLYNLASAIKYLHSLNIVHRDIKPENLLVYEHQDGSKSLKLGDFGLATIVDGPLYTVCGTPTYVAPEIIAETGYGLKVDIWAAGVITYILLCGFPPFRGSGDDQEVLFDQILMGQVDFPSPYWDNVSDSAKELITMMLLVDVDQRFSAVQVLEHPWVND

DYRK1AA = target: T5, DYRK1AA (Homo sapiens, UniProt Q13627)
T5 construct: purchased in-house DSF kinase panel (SGC-style construct names; the trailing letter is the construct ID)

CDKL1A = target: T6, CDKL1A (Homo sapiens, UniProt Q00532)
T6 construct: purchased in-house DSF kinase panel (SGC-style construct names; the trailing letter is the construct ID)

FGFR2A = target: T7, FGFR2A (Homo sapiens, UniProt P21802)
T7 construct: purchased in-house DSF kinase panel (SGC-style construct names; the trailing letter is the construct ID)

MELKA = target: T8, MELKA (Homo sapiens, UniProt Q14680)
T8 construct: purchased in-house DSF kinase panel (SGC-style construct names; the trailing letter is the construct ID)

GPRK5A = target: T9, GPRK5A (Homo sapiens, UniProt P34947)
T9 construct: purchased in-house DSF kinase panel (SGC-style construct names; the trailing letter is the construct ID)

BRAFA = target: T10, BRAFA (Homo sapiens, UniProt P15056)
T10 construct: purchased in-house DSF kinase panel (SGC-style construct names; the trailing letter is the construct ID)

NEK1A = target: T11, NEK1A (Homo sapiens, UniProt Q96PY6)
T11 construct: purchased in-house DSF kinase panel (SGC-style construct names; the trailing letter is the construct ID)
T11 sequence (Q96PY6 1-328): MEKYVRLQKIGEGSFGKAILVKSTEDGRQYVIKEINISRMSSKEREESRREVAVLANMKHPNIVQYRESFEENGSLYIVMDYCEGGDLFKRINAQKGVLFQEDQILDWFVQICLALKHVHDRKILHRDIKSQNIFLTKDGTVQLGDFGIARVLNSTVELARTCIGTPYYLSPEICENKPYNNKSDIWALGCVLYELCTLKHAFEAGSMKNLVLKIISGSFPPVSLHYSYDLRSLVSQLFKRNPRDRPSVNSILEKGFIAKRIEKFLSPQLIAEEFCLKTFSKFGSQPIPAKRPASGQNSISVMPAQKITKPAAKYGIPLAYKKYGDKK

MAPK14A = target: T12, MAPK14A (Homo sapiens, UniProt Q16539)
T12 construct: purchased in-house DSF kinase panel (SGC-style construct names; the trailing letter is the construct ID)

DAPK1 (DAPK1A) = target: T13, DAPK1 (DAPK1A) (Homo sapiens, UniProt P53355)
T13 construct: purchased in-house DSF kinase panel (SGC-style construct names; the trailing letter is the construct ID)

STK17BA = target: T14, STK17BA (Homo sapiens, UniProt O94768)
T14 construct: purchased in-house DSF kinase panel (SGC-style construct names; the trailing letter is the construct ID)
T14 sequence (O94768 25-329): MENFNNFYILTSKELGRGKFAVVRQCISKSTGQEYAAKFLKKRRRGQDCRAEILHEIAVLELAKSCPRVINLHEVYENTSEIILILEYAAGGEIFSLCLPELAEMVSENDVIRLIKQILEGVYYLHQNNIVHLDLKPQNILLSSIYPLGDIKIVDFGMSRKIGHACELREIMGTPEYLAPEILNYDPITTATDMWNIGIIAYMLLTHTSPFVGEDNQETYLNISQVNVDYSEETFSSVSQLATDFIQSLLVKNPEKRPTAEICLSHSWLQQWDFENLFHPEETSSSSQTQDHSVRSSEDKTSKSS

T7 sequence (P21802 458-770): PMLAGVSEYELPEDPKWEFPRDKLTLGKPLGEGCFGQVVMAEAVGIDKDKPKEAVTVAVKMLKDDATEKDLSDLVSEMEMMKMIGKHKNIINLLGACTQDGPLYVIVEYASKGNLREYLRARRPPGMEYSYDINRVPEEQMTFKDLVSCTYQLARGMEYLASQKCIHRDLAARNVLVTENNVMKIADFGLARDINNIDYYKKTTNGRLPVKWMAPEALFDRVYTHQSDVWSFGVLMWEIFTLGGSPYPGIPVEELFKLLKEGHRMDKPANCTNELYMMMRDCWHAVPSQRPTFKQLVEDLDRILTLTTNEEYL
T13 sequence (P53355 1-285): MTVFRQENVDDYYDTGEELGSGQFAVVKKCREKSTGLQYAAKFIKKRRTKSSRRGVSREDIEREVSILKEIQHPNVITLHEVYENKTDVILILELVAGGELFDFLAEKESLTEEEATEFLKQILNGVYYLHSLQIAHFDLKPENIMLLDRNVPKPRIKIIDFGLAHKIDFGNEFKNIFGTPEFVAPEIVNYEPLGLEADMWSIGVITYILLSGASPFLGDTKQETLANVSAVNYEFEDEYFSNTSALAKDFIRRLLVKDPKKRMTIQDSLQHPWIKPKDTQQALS
T8 sequence (Q14680 1-340): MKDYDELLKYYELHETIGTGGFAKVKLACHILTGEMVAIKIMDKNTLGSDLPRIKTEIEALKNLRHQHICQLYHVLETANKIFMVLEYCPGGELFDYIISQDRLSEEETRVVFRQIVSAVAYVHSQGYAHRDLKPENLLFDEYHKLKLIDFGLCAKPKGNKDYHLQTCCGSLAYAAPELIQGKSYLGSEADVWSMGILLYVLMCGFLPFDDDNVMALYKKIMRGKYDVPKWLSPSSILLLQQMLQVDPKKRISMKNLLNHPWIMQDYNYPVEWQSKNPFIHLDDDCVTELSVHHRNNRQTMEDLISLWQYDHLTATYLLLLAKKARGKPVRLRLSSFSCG
T9 sequence (P34947 186-514): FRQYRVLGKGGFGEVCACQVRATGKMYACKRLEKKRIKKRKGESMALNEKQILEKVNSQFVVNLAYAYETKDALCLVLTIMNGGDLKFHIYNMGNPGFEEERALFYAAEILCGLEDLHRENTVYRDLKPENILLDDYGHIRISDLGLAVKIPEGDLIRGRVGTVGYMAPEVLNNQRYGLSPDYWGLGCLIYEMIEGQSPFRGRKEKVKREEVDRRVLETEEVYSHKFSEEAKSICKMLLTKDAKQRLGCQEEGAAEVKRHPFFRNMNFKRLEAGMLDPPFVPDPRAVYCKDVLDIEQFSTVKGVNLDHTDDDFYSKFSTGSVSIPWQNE
T12 sequence (Q16539 whole entry): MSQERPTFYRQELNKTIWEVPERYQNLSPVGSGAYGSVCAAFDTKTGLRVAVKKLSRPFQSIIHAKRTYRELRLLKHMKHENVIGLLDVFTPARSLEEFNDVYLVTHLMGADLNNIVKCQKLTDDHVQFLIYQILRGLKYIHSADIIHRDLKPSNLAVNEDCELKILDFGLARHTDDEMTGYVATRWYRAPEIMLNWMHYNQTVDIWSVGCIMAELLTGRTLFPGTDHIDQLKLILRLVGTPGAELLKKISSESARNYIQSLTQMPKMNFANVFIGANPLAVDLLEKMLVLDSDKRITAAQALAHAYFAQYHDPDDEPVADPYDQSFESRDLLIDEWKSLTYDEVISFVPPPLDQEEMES
T6 sequence (Q00532 1-303): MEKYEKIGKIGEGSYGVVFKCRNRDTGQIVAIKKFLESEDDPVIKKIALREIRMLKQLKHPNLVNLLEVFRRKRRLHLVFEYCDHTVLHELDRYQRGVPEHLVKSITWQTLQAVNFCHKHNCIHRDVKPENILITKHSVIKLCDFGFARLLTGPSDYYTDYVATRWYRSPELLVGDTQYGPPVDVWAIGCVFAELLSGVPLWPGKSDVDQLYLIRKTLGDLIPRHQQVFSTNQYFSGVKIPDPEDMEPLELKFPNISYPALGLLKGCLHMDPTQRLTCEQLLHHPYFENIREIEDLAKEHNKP
T3 sequence (P45984 7-364): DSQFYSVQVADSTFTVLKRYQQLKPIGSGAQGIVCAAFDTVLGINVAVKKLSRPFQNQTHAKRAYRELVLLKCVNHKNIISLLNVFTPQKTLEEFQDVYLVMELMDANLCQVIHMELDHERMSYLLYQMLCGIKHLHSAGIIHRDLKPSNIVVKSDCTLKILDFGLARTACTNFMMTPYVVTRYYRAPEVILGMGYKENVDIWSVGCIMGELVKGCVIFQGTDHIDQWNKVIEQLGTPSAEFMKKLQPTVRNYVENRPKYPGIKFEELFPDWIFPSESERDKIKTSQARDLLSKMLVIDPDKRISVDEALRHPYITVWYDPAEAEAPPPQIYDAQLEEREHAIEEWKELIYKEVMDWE
T10 sequence (P15056 448-723): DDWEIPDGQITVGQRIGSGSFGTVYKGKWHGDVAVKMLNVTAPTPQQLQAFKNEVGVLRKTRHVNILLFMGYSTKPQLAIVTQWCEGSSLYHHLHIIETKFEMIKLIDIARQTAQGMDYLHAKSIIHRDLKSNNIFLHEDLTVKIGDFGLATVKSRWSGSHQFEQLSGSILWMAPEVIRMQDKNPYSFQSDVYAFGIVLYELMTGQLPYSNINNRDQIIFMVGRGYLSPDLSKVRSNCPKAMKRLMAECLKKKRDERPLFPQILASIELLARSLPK
T2 sequence (P49759 148-484): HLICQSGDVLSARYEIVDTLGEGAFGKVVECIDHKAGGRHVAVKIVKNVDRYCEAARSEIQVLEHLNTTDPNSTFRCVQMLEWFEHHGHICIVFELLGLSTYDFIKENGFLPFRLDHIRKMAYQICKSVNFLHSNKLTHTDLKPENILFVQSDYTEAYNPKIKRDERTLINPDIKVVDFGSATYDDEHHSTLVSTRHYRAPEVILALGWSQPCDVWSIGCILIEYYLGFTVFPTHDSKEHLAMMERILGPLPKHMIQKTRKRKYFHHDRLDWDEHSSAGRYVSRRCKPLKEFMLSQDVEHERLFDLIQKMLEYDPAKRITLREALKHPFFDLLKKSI

| Structure (SMILES) | ΔTm at 10 µM (EPHB3A) [°C] | ΔTm at 10 µM (CLK1A) [°C] | ΔTm at 10 µM (MAPK9A) [°C] | ΔTm at 10 µM (DCAMKL1A) [°C] | ΔTm at 10 µM (DYRK1AA) [°C] | ΔTm at 10 µM (CDKL1A) [°C] | ΔTm at 10 µM (FGFR2A) [°C] | ΔTm at 10 µM (MELKA) [°C] | ΔTm at 10 µM (GPRK5A) [°C] | ΔTm at 10 µM (BRAFA) [°C] | ΔTm at 10 µM (NEK1A) [°C] | ΔTm at 10 µM (MAPK14A) [°C] | ΔTm at 10 µM (DAPK1 (DAPK1A)) [°C] | ΔTm at 10 µM (STK17BA) [°C] |
| --- | --- | --- | --- | --- | --- | --- | --- | --- | --- | --- | --- | --- | --- | --- |
| Cc1cc(Br)ccc1CNC(=O)Nc1ccc2cc1OCCOCCNc1ccn3ncc-2c3n1 [compound 24] | 0.7 | 1 | -1.2 | 1.6 | 0.4 | 0.5 | 2.2 | 0 | 0 | -0.3 | -0.4 | 2 | -0.3 | 3.6 |
| CN1CCN(C(=O)Nc2ccc3cc2OCCOCCNc2ccn4ncc-3c4n2)CC1 [compound 35] | 0.6 | 2.9 | 0.4 | 0.6 | -1.5 | -0.2 | 1.5 | 2.2 | 0.8 | 1.2 | 0.4 | -0.3 | 0.7 | 3.4 |
| O=C(NCc1ccccc1C(F)(F)F)Nc1ccc2cc1OCCOCCNc1ccn3ncc-2c3n1 [compound 27] | 1.4 | 2.3 | -0.1 | 2.3 | 1 | 0.4 | 2.7 | 0.4 | 0.2 | -0.4 | -0.4 | 2.6 | 0.1 | 5.1 |
| COc1cc(CNC(=O)Nc2ccc3cc2OCCOCCNc2ccn4ncc-3c4n2)ccc1F [compound 33] | 0.8 | 4.7 | -1.2 | 2.2 | 0.9 | 0.5 | 3.7 | 2.1 | 2.2 | -0.6 | -0.1 | 1.4 | 0.5 | 2.7 |
| COc1ccc(CNC(=O)Nc2ccc3cc2OCCOCCNc2ccn4ncc-3c4n2)cc1F [compound 32] | 0.6 | 2.7 | -0.6 | 1.6 | 0.6 | 0.5 | 2.8 | 1.4 | 0.7 | -0.2 | -0.4 | 2.4 | 0.4 | 3.4 |
| Cc1ccc(F)cc1CNC(=O)Nc1ccc2cc1OCCOCCNc1ccn3ncc-2c3n1 [compound 26] | 0.9 | 2.1 | -1.6 | 1.6 | 0.8 | 0.5 | 3.5 | 1.1 | 0.1 | -0.6 | -0.4 | 2.7 | 0.2 | 3.1 |

Results, then the compound that gave them:

| ΔTm at 10 µM (EPHB3A) [°C] | ΔTm at 10 µM (CLK1A) [°C] | ΔTm at 10 µM (MAPK9A) [°C] | ΔTm at 10 µM (DCAMKL1A) [°C] | ΔTm at 10 µM (DYRK1AA) [°C] | ΔTm at 10 µM (CDKL1A) [°C] | ΔTm at 10 µM (FGFR2A) [°C] | ΔTm at 10 µM (MELKA) [°C] | ΔTm at 10 µM (GPRK5A) [°C] | ΔTm at 10 µM (BRAFA) [°C] | ΔTm at 10 µM (NEK1A) [°C] | ΔTm at 10 µM (MAPK14A) [°C] | ΔTm at 10 µM (DAPK1 (DAPK1A)) [°C] | ΔTm at 10 µM (STK17BA) [°C] | Structure (SMILES) |
| --- | --- | --- | --- | --- | --- | --- | --- | --- | --- | --- | --- | --- | --- | --- |
| 0.3 | 4.5 | 0.4 | 0.7 | -1.3 | 0.4 | 1.7 | 2.4 | 1.3 | 0.8 | 0.2 | 0 | 0.1 | 4.1 | O=C(NCc1ccccc1Cl)Nc1ccc2cc1OCCOCCNc1ccn3ncc-2c3n1 [compound 17] |
| 0.1 | 2.1 | 1.5 | 0.6 | 0.6 | 0.9 | 0.9 | 0.9 | 1.3 | 0.4 | 0.7 | 0.8 | 0.2 | 2.8 | O=C(NCc1ccc(Cl)cc1Cl)Nc1ccc2cc1OCCOCCNc1ccn3ncc-2c3n1 [compound 20] |
| -0.4 | 2.8 | 0.3 | 0.4 | 0.7 | 0 | 2.3 | 2.4 | 1.4 | 0.5 | 0.7 | 0.5 | 0.3 | 2.7 | O=C(NCc1ccc(Cl)cc1F)Nc1ccc2cc1OCCOCCNc1ccn3ncc-2c3n1 [compound 21] |
| 0.9 | 2.6 | 2 | 0.7 | 2.6 | 0.4 | 1.9 | 1.1 | 0.8 | 0.5 | 0.9 | 0.3 | 0.1 | 3.3 | Cc1cc(Cl)ccc1CNC(=O)Nc1ccc2cc1OCCOCCNc1ccn3ncc-2c3n1 [compound 23] |
| -0.1 | 2.1 | 0.3 | 0 | -1 | 0.3 | 3.7 | 1.5 | 1.5 | 0.8 | -0.2 | 0.1 | -0.1 | 1.2 | O=C(NCc1ccc(Cl)cc1)Nc1ccc2cc1OCCOCCNc1ccn3ncc-2c3n1 [compound 19] |
| 0.2 | 2.9 | 0.5 | -0.1 | 1.1 | -0.1 | 3.3 | 1.5 | 1.1 | 0.6 | 0.2 | 0.3 | 0.3 | 2.4 | O=C(NCc1cccc(Cl)c1)Nc1ccc2cc1OCCOCCNc1ccn3ncc-2c3n1 [compound 18] |
